Test results as given in patent publication US20070232601A1, “Vla-4 Inhibitor” (priority 2004, published 2007).
Marks after values point to notes of the source that are not given here.

Legend:
[1] = target: T1, hα4 and β1 integrins (VLA-4) (Homo sapiens, UniProt P05556+P13612); test: In vitro evaluation: inhibition of binding of CHO cells expressing hα4 and β1 integrins to Eu3+-hVCAM-1 D1D7-IgG; settings: ligand Eu3+-hVCAM-1 D1D7-IgG 2 nM, Ki calculated from IC50
T1 construct: expressed in transfected cells; host or cells: CHO cells
T1 sequence (P13612 34-1032): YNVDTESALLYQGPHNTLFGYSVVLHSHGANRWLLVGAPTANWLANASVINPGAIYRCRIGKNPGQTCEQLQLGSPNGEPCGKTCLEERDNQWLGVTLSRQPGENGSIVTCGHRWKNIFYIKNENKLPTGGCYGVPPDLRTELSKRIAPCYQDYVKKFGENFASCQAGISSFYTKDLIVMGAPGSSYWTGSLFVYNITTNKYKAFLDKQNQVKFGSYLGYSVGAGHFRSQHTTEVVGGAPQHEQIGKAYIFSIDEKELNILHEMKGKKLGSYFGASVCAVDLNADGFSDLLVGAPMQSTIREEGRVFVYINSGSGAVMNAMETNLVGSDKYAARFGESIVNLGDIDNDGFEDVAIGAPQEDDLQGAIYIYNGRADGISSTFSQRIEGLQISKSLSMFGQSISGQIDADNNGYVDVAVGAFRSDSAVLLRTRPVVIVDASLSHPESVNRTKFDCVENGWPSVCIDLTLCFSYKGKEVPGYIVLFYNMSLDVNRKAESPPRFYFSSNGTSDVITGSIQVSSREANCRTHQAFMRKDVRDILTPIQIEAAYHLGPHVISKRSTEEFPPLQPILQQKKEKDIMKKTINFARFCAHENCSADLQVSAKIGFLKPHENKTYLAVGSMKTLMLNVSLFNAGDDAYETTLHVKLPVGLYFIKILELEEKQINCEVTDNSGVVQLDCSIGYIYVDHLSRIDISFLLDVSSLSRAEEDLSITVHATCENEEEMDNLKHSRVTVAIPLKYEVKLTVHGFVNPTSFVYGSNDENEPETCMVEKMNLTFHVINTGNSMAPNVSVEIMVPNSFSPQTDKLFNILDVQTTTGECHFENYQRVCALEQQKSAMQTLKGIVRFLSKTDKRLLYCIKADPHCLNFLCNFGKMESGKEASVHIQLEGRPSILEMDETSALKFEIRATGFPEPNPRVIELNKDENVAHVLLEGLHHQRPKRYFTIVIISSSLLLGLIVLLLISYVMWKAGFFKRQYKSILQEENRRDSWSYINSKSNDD
T1 sequence (P05556 21-798): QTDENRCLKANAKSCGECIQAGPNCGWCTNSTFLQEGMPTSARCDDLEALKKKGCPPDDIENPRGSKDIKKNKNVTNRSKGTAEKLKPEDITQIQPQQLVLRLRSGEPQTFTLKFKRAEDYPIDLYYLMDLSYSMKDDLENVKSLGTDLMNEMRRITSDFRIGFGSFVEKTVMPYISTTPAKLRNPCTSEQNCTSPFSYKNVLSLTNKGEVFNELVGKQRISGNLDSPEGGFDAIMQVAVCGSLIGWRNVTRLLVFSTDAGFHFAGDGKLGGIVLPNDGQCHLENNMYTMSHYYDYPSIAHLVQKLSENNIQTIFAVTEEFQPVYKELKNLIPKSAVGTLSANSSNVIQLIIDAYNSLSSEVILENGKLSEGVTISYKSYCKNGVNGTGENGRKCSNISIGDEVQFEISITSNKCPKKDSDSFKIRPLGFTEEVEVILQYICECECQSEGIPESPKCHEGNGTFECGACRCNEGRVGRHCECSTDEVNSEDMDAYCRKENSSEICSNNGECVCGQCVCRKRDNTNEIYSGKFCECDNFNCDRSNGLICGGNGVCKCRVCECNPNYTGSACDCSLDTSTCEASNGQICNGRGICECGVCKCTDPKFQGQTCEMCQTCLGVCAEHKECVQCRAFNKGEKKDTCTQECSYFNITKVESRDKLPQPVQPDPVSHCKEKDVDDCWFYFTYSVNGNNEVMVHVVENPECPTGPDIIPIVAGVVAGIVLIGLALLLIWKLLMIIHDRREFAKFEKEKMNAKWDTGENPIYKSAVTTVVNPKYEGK
How it was run: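 CHO cells stably expressing hα4β1 were cultured 2 days, then incubated 1 h at room temperature with Eu3+-hVCAM-1 D1D7-IgG (added as 2 nM solution) and compound in HEPES pH 7.5 with Ca2+, Mg2+ and 4 mM Mn2+, ± 6% human serum albumin. Bound europium was read by time-resolved fluorescence; IC50 was converted to Ki using Scatchard-derived Kd.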

[2] = test system: eosinophils in BALF; test: Ascaris active sensitization-induced mouse eosinophil infiltration test; format: in vivo; settings: test substance orally administered two times per day, BALF 48 hours after inducement; for Inhibition rate: vs Ascaris-induced group
Protocol: Ascaris (Ascaris suum Antigen in pigs) active sensitization-induced mouse eosinophil infiltration test:
It has been reported that cell infiltration of eosinophil is induced by inducing Ascaris active sensitization {Int. Arch. Immunol., 108, 11-18, (1995)}. In this evaluation method, a test compound was evaluated. A test substance was orally administered two times per day, the total count of cells and the count of eosinophils in BALF 48 hours after inducement were calculated, and the effect was determined by comparing with a non-test substance administered group.
Results of mouse eosinophil infiltration test ^1 anti-VLA-4 antibody, two times/1 day s.c. administration; **p<0.01: vs D, cont by student's t-test

[3] = Intracorporeal kinetics and oral absorbing property test (dog, oral cassette); format: in vivo; settings: orally administered, 0.5 mg/kg cassette; for AUC (total area under the plasma concentration versus time curve): LC/MS/MS
Protocol: Intracorporeal Kinetics and Oral Absorbing Property Test: A pharmacokinetic parameter when a test substance was orally administered to a dog by 0.5 mg/kg cassette was as follows.

[4] = Dispersibility test in Japanese Pharmacopoeia First and Second Solution; format: physicochemical; settings: for Dispersibility in Japanese Pharmacopoeia First Solution: JP1, pH 1.2; for Dispersibility in Japanese Pharmacopoeia Second Solution: JP2, pH 6.8
Protocol: Dispersibility of a test substance in Japanese Pharmacopoeia First Solution (JP1, pH 1.2) and Japanese Pharmacopoeia Second Solution (JP2, pH 6.8) was evaluated.

SMILES	Ki [1] [nM]	Average total eosinophil count [2]	Inhibition rate [2]	Cltot (apparent plasma clearance) [3] [mL/min/kg]	AUC (total area under the plasma concentration versus time curve) [3] [ng·h/mL]	Dispersibility in Japanese Pharmacopoeia First Solution [4] [µg/mL]	Dispersibility in Japanese Pharmacopoeia Second Solution [4] [µg/mL]
CO[C@H]1C[C@@H](c2ncc(CCC(=O)O)s2)N(C(=O)Cc2cc(Cl)c(NC(=O)c3cn(C)c4ccccc34)cc2Cl)C1 [Example 1, 3-[2-[1-[2,5-Dichloro-4-(1-methyl-3-indolylcarbonylamino)phenylacetyl]-(4S)-methoxy-(2S)-pyrrolidinyl]-5-thiazolyl]propionic acid]	1.3	1.52 ×10^5	57** %	1.23	7040	33	>2000
CO[C@H]1C[C@@H](c2ncc(CCC(=O)O)s2)N(C(=O)Cc2cc(Cl)c(NC(=O)c3cn(C)c4ccccc34)cc2F)C1 [Example 2, 3-[2-[1-[5-Chloro-2-fluoro-4-(1-methyl-3-indolylcarbonyl)aminophenylacetyl]-(4S)-methoxy-(2S)-pyrrolidinyl]-5-thiazolyl]propionic acid]	0.85	–	–	0.81	10690	97	>2000
CO[C@H]1C[C@@H](c2ncc(CCC(=O)O)s2)N(C(=O)Cc2cc(Cl)c(NC(=O)c3csc4ccccc34)cc2F)C1 [Example 4, 3-[2-[1-[4-[(3-Benzo[b]thienylcarbonyl)amino]-5-chloro-2-fluorophenylacetyl]-(4S)-methoxy-(2S)-pyrrolidinyl]-5-thiazolyl]propionic acid]	0.72	–	–	0.82	10240	–	–
CC(C)O[C@H]1C[C@@H](c2ncc(CCC(=O)O)s2)N(C(=O)Cc2cc(Cl)c(NC(=O)c3csc4ccccc34)cc2F)C1 [Example 36, 3-[2-[1-[4-[(3-Benzo[b]thienylycarbonyl)amino]-5-chloro-2-fluorophenylacetyl]-4S-isopropoxy-(2S)-pyrrolidinyl]-5-thiazolyl]propionic acid]	1.7	–	–	0.57	14935	–	–
Cn1cc(C(=O)Nc2cc(Cl)c(CC(=O)N3C[C@@H](N4CCCCC4)C[C@H]3c3ncc(CCC(=O)O)s3)cc2Cl)c2ccccc21 [Example 46, 3-[2-[1-[2,5-Dichloro-4-(1-methyl-3-indolylcarbonylamino)phenylacetyl]-(4S=)=1-piperidinyl-(2S)-pyrrolidinyl]-5-thiazolyl]propionic acid]	1.6	1.44 ×10^5	53** %	–	–	>2000	570
CCOC[C@@H]1CC[C@@H](c2ncc(CCC(=O)O)s2)N1C(=O)Cc1ccc2nc(Nc3cc(F)ccc3C)oc2c1F [Example 51, 3-[2-[(5S)-ethoxymethyl-1-[7-fluoro-2-(5-fluoro-2-methylphenyl)amino-6-benzoxazolylacetyl]-(2S)-pyrrolidinyl]-5-thiazolyl]propionic acid]	4.6	–	–	0.26	32310	88	>800
COC[C@@H]1CC[C@@H](c2ncc(CCC(=O)O)s2)N1C(=O)Cc1ccc2nc(Nc3cc(F)ccc3C)oc2c1F [Example 57, 3-[2-[1-[7-Fluoro-2-(5-fluoro-2-methylphenyl)-amino-6-benzoxazolylacetyl]-(5S)-methoxymethyl-(2S)-pyrrolidinyl]-5-thiazolyl]propionic acid]	4.4	–	–	0.31	27620	–	–
COC[C@@H]1CC[C@@H](c2ncc(CCC(=O)O)s2)N1C(=O)Cc1ccc2nc(Nc3cc(F)ccc3C)oc2c1 [Example 58]	6.7	–	–	0.59	14860	–	–
Cn1cc(C(=O)Nc2cc(Cl)c(CC(=O)N3[C@H](c4ncc(CCC(=O)O)s4)C[C@@H]4CCCC[C@@H]43)cc2Cl)c2ccccc21 [Example 60, 3-[2-[1-[2,5-Dichloro-4-(1-methyl-3-indolylcarbonyl)aminophenylacetyl]-(2S)-octahydroindolyl]-5-thiazolyl]propionic acid]	8.6	–	–	0.42	19770	–	–
CO[C@H]1C[C@@H](c2ncc(CCC(=O)O)s2)N(C(=O)Cc2cc(Cl)c(Nc3nc4ccccc4o3)cc2Cl)C1 [Example 109, 3-[2-[1-[4-(2-Benzoxazolyl)amino-2,5-dichlorophenyl)acetyl-(4S)-methoxy-(2S)-pyrrolidinyl]-5-thiazolyl]propionic acid]	6.3	–	–	–	–	480	750
CO[C@H]1C[C@@H](c2ncc(CCC(=O)O)s2)N(C(=O)Cc2ccc(Nc3nc4ccccc4s3)c(Cl)c2)C1 [Example 110, 3-[2-[1-[4-(2-Benzothiazolyl)amino-3-chlorophenyl]acetyl-(4S)-methoxy-(2S)-pyrrolidinyl]-5-thiazolyl]propionic acid]	2.5	–	–	–	–	730	730
CO[C@H]1C[C@@H](c2ncc(CCC(=O)O)s2)N(C(=O)Cc2cc(Cl)c(Nc3nc4ccccc4s3)cc2F)C1 [Example 111, 3-[2-[1-[4-(2-Benzothiazolyl)amino-5-chloro-2-fluorophenyl]acetyl-(4S)-methoxy-(2S)-pyrrolidinyl]-5-thiazolyl]propionic acid]	3.3	–	–	–	–	570	750
CO[C@H]1C[C@@H](c2ncc(CCC(=O)O)s2)N(C(=O)Cc2cc(Cl)c(Nc3nc4ccccc4s3)cc2Cl)C1 [Example 112, 3-[2-[1-[4-(2-Benzothiazolyl)amino-2,5-dichlorophenyl]acetyl-(4S)-methoxy-(2S)-pyrrolidinyl]-5-thiazolyl]propionic acid]	1.9	–	–	–	–	420	770
CO[C@H]1C[C@@H](c2ncc(CCC(=O)O)s2)N(C(=O)Cc2cc(Cl)c(Nc3nc4cc(F)ccc4s3)cc2F)C1 [Example 113, 3-[2-[1-[4-(5-Fluoro-2-benzothiazolyl)amino-5-chloro-2-fluorophenyl]acetyl-(4S)-methoxy-(2S)-pyrrolidinyl]-5-thiazolyl]propionic acid]	5	–	–	–	–	180	770
O=C(O)CCc1cnc([C@@H]2[C@@H](O)CCN2C(=O)Cc2ccc(Nc3nc4ccccc4s3)c(Cl)c2)s1 [Example 119, 3-[2-[1-[4-(2-Benzothiazolyl)amino-3-chlorophenyl]acetyl-(3S)-hydroxy-(2S)-pyrrolidinyl]-5-thiazolyl]propionic acid]	6.2	–	–	–	–	730	730
O=C(O)CCc1cnc([C@@H]2[C@@H](O)CCN2C(=O)Cc2cc(Cl)c(Nc3nc4ccccc4s3)cc2F)s1 [Example 120, 3-[2-[1-[4-(2-Benzothiazolyl)amino-5-chloro-2-fluorophenyl]acetyl-(3S)-hydroxy-(2S)-pyrrolidinyl]-5-thiazolyl]propionic acid]	9.8	–	–	–	–	320	760
O=C(O)CCc1cnc([C@@H]2[C@@H](O)CCN2C(=O)Cc2cc(Cl)c(Nc3nc4ccccc4s3)cc2Cl)s1 [Example 121, 3-[2-[1-[4-(2-Benzothiazolyl)amino-2,5-dichlorophenyl]acetyl-(3S)-hydroxy-(2S)-pyrrolidinyl]-5-thiazolyl]propionic acid]	8.5	–	–	–	–	160	780
